This data set is described as follows: refractive index (other wavelength) (dimensionless); xn = mol fraction of the nth substance listed. The note with it: 85 kPa, Liquid, Wavelength=632.8 nm, minimum deviation angle, x2 = 0.

± gives the expanded uncertainty stated by the source.

As for `CCCCCCO` [hexan-1-ol] + CCCCCCCC[n+]1ccn(C)c1.F[B-](F)(F)F, the refractive index was determined as 1.4165 ± 0.0002 (293.99 K); 1.4156 ± 0.0002 (295.93 K); 1.4151 ± 0.0002 (297.36 K); 1.4145 ± 0.0002 (298.94 K); 1.4138 ± 0.0002 (300.69 K); 1.4128 ± 0.0002 (303.34 K). For the same molecule, the refractive index stood at 1.4122 ± 0.0002 (304.77 K) and 1.4117 ± 0.0002 (306.24 K).
For `CCCCCO` [pentan-1-ol] + CCCCCCCC[n+]1ccn(C)c1.F[B-](F)(F)F, the refractive index by setting is: (290.68 K) 1.4096 ± 0.0002; (292.95 K) 1.4087 ± 0.0002; (295.03 K) 1.4079 ± 0.0002; (297.17 K) 1.4071 ± 0.0002; (299.35 K) 1.4062 ± 0.0002; (301.73 K) 1.4053 ± 0.0002.

Broadly, the refractive index is a measure of how strongly the sample bends light.

The record behind these values is the NIST ThermoML archive (doi:10.1016/j.fluid.2014.07.036).
